Results taken from patent US11242549B2, “Bio-refinery waste utilization for enzyme production using novel penicillium funiculosum MRJ-16 fungal strain” (INDIAN OIL CORPORATION LIMITED, priority 2019, dated 2022).
Like-named read-outs stand apart in the source and are kept apart here.

Tested on: Penicillium funiculosum MRJ-16 mutant strain
Assay type: cell-based
Conditions: 120 hours of fermentation
Method: Fermentation process was carried out using ammonium sulphate (3-5 g/L), KH2PO4 (4-6 g/L), MgSO4.7H2O (0.5-1 g/L), CaCO3 (2.5-5 g/L), Glycerol (2-3 g/L), Corn steep solids (25-35 g/L), cellulose (25-40 g/L) and Tween-80 (1-2 ml/L) dissolved in distilled water. Novel Penicillium funiculosum MRJ-16 mutant strain developed in the laboratory was used for the study. […]
Cultivation of Penicillium funiculosum MRJ-16 mutant strain was conducted under conditions and media composition identical to example no. 1 along with inhibitors at different concentration.

| SMILES | Average FPA/ml (inhibitor 0.5% in media) | Average FPA/ml (inhibitor 0.25% in media) |
| --- | --- | --- |
| CC(=O)O [Acetic acid, acetic acid] | 6.49 FPA/ml | – |
| O=Cc1ccco1 [Furfural, furfural] | – | 6.83 FPA/ml |
| O=Cc1ccc(CO)o1 [HMF, hydroxyl methyl furfural] | – | 6.07 FPA/ml |
